According to patent US7135493B2, “HDAC inhibitor” (Astellas Pharma Inc., priority 2003, dated 2006):

Key:
[1] = target: human histone deacetylase; assay: Test 1: Determination of histone deacetylase inhibitor activity ([3H]acetyl histone deacetylation); assay type: biochemical; details: human histone deacetylase partially purified from Jurkat cells; [3H]acetyl-labeled histones, 25° C., 30 minutes; read-out: Test 1: HDAC inhibitory activity IC50
Experimental: Test 1: Determination of Histone Deacetylase Inhibitor Activity
The partial purification of human histone deacetylase, the preparation of [^3H] acetyl histones, and the assay for histone deacetylase activity were performed basically according to the method as proposed by Yoshida et al. as follows.
Partial Purification of Human Histone Deacetylase
The human histone deacetylase was partially purified from human T cell leukemia Jurkat cells. Jurkat cells (5×10^8 cells) were suspended in 40 mL of the HDA buffer consisting of 15 mM potassium phosphate, pH 7.5, 5% glycerol and 0.2 mM EDTA. After homogenization, nuclei were collected by centrifugation (35,000×g, 10 min) and homogenized in 20 mL of the same buffer supplemented with 1 M (NH4)2SO4. The viscous homogenate was sonicated and clarified by centrifugation (35,000×g, 10 min), and the deacetylase was precipitated by raising the concentration of (NH4)2SO4 to 3.5 M. The precipitated protein was dissolved in 10 mL of the HDA buffer and dialyzed against 4 liters of the same buffer. The dialyzate was then loaded onto a DEAE-cellulose (Whatman DE52) column (25×85 mm) equilibrated with the same buffer and eluted with 300 mL of a linear gradient (0–0.6 M) of NaCl. A single peak of histone deacetylase activity appeared between 0.3 and 0.4 M NaCl.
Preparation of [^3H] Acetyl Histone
To obtain [^3H] acetyl-labeled histone as the substrate for the histone deacetylase assay, 1×10^8 cells of Jurkat in 20 mL of RPMI-1640 medium (supplemented with 10% FBS, penicillin (50 units/mL) and streptomycin (50 μg/mL)) were incubated with 300 MBq [^3H] sodium acetate in the presence of 5 mM sodium butyrate for 30 minutes in 5% CO2-95% air atmosphere at 37° C. in a 75 cm^2 flask, harvested into a centrifuge tube (50 mL), collected by centrifugation at 1000 rpm for 10 minutes, and washed once with phosphate-buffered saline. The washed cells were suspended in 15 mL of ice-cold lysis buffer (10 mM Tris-HCl, 50 mM sodium bisulfite, 1% Triton X-100, 10 mM MgCl2, 8.6% sucrose, pH 6.5). After Dounce homogenization (30 stroke), the nuclei were collected by centrifugation at 1000 rpm for 10 minutes, washed 3 times with 15 mL of the lysis buffer, and once with 15 mL of ice-cooled washing buffer (10 mM Tris-HCl, 13 mM EDTA, pH 7.4) successively. […]
For the standard assay, 10 μl of [^3H] acetyl-labeled histones were added to 90 μl of the enzyme fraction, and the mixture was incubated at 25° C. for 30 minutes. […] The released [^3H] acetic acid was extracted with 1 mL of ethyl acetate, and 0.9 mL of the solvent layer was taken into 10 mL of toluene scintillation solution for determination of radioactivity.

[2] = test system: splenic cells of Lewis rats; assay: Test 2: Determination of T-cell growth inhibitor activity (T lymphocyte blastogenesis, Concanavalin A, AlamarBlue); assay type: cell-based; details: Lewis rat splenic cells, 72 hours, AlamarBlue Assay, read-out: Test 2: T-cell growth inhibitory activity IC50
Experimental: Test 2: Determination of T-Cell Growth Inhibitor Activity
The T lymphocyte blastogenesis test was performed in microtiter plates with each well containing 1.5×10^5 splenic cells of Lewis rats in 0.1 mL RPMI-1640 medium supplemented with 10% fetal bovine serum-(FBS), […] 2-mercaptoethanol, penicilln (100 units/mL) and streptomycin (100 μg/mL), to which Concanavalin A ([…]) was added. The cells were incubated at 37° C. in a humidified atmosphere of 5% CO2 for 72 hours. After the culture period, suppressive activities of the test compounds in T lymphocyte blastogenesis were quantified by AlamarBlue (trademark) Assay. The test samples were dissolved in DMSO and further diluted with RPMI-1640 medium and added to the culture. The activities of the test compounds were expressed as IC50.

| IC50 [1] | Structure (SMILES) | IC50 [2] |
| --- | --- | --- |
| 28 nM | O=C(/C=C/c1ccc(Cc2nc3ccccc3[nH]2)cc1)NO [Compound E1] | 69 nM |
| 140 nM | O=C(/C=C/c1ccc(CCc2nc3ccccc3[nH]2)cc1)NO [Compound E3] | 160 nM |
| 96 nM | O=C(/C=C/c1ccc(C(Cc2ccccc2)c2nc3ccccc3n2Cc2ccccc2)cc1)NO (centres unmarked) [Compound E5] | 310 nM |
| 150 nM | O=C(/C=C/c1cccc(Cc2nc3ccccc3[nH]2)c1)NO [Compound E6] | 150 nM |
